Target: T1, glutathione S-transferase (GST)-linked full-length human Syk protein (Homo sapiens, UniProt P43405)
T1 construct: glutathione S-transferase (GST)-linked full-length human Syk protein; purchased Carna Biosciences; host or cells: Baculovirus expression system
Assay: Syk enzyme assay
Assay type: biochemical
Settings: 0.83 nM Syk, time-resolved fluorescence; read-out: IC50 of Syk-inhibitory activity
Procedure, shortened: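 Phosphotyrosine on a biotin-peptide substrate (0.5 μM) was read by time-resolved fluorescence at 615 and 665 nm with Eu-anti-pTyr antibody and APC-streptavidin after 1 h EDTA stop.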

SMILES	IC50 [nM]
CCc1cccc(Nc2nc(N[C@@H]3CCCC[C@@H]3N)c(F)cc2C(N)=O)c1 [Example 2-450, 6-(((1R,2S)-2-aminocyclohexyl)amino)-2-((3-ethylphenyl)amino)-5-fluoronicotinamide]	< 10
C[C@H](N)[C@H](Nc1nc(Nc2cnc(N3CCOCC3)c(F)c2)c(C(N)=O)cc1F)c1cccc(F)c1 [Example 2-451, 6-(((1R,2S)-2-amino-1-(3-fluorophenyl)propyl)amino)-5-fluoro-2-((5-fluoro-6-morpholinopyridin-3-yl)amino)nicotinamide]	< 10
C[C@H](N)[C@H](Nc1nc(Nc2ccc3c(c2)c(N(C)C)nn3C)c(C(N)=O)cc1F)c1cccc(F)c1 [Example 2-452, 6-(((1R,2S)-2-amino-1-(3-fluorophenyl)propyl)amino)-2-((3-(dimethylamino)-1-methyl-1H-indazol-5-yl)amino)-5-fluoronicotinamide]	< 10
Cc1ncc(Nc2nc(N[C@H](c3cccc(F)c3)[C@H](C)N)c(F)cc2C(N)=O)cc1F [Example 2-453, 6-(((1R,2S)-2-amino-1-(3-fluorophenyl)propyl)amino)-5-fluoro-2-((5-fluoro-6-methylpyridin-3-yl)amino)nicotinamide]	< 10
COCCn1ncc2cc(Nc3nc(N[C@H](c4ccc(OC)cc4)[C@H](C)N)c(F)cc3C(N)=O)ccc21 [Example 2-455, 6-(((1R,2S)-2-amino-1-(4-methoxyphenyl)propyl)amino)-5-fluoro-2-((1-(2-methoxyethyl)-1H-indazol-5-yl)amino)nicotinamide]	< 10
COCCN(C)c1nn(C)c2ccc(Nc3nc(N[C@@H]4CCOC[C@@H]4N)c(F)cc3C(N)=O)cc12 [Example 2-457, 6-(((3R,4R)-3-aminotetrahydro-2H-pyran-4-yl)amino)-5-fluoro-2-((3-((2-methoxyethyl)(methyl)amino)-1-methyl-1H-indazol-5-yl)amino)nicotinamide]	< 10
CC[C@@H](Nc1nc(Nc2ccc3c(c2)c(N(C)CCOC)nn3C)c(C(N)=O)cc1F)[C@H](C)N [Example 2-458, 6-(((2S,3R)-2-aminopentan-3-yl)amino)-5-fluoro-2-((3-((2-methoxyethyl)(methyl)amino)-1-methyl-1H-indazol-5-yl)amino)nicotinamide]	< 10
CCC[C@@H](Nc1nc(Nc2ccc3c(c2)c(N(C)CCOC)nn3C)c(C(N)=O)cc1F)[C@H](C)N [Example 2-459, 6-(((2S,3R)-2-aminohexan-3-yl)amino)-5-fluoro-2-((3-((2-methoxyethyl)(methyl)amino)-1-methyl-1H-indazol-5-yl)amino)nicotinamide]	10 to 50
COCCN(C)c1nn(C)c2ccc(Nc3nc(N[C@H](C4CC4)[C@H](C)N)c(F)cc3C(N)=O)cc12 [Example 2-460, 6-(((1R,2S)-2-amino-1-cyclopropylpropyl)amino)-5-fluoro-2-((3-((2-methoxyethyl)(methyl)amino)-1-methyl-1H-indazol-5-yl)amino)nicotinamide]	< 10
CC[C@H](N)[C@@H](C)Nc1nc(Nc2ccc3c(c2)c(N(C)CCOC)nn3C)c(C(N)=O)cc1F [Example 2-461, 6-(((2R,3S)-3-aminopentan-2-yl)amino)-5-fluoro-2-((3-((2-methoxyethyl)(methyl)amino)-1-methyl-1H-indazol-5-yl)amino)nicotinamide]	10 to 50
COCCNc1nn(C)c2ccc(Nc3nc(N[C@@H]4CCCC[C@@H]4N)c(F)cc3C(N)=O)cc12 [Example 2-462, 6-(((1R,2S)-2-aminocyclohexyl)amino)-5-fluoro-2-((3-((2-methoxyethyl)amino)-1-methyl-1H-indazol-5-yl)amino)nicotinamide]	10 to 50
CC[C@@H](Nc1nc(Nc2ccc3c(c2)c(NCCOC)nn3C)c(C(N)=O)cc1F)[C@H](C)N [Example 2-463, 6-(((2S,3R)-2-aminopentan-3-yl)amino)-5-fluoro-2-((3-((2-methoxyethyl)amino)-1-methyl-1H-indazol-5-yl)amino)nicotinamide]	10 to 50
COCCNc1nn(C)c2ccc(Nc3nc(N[C@H](C4CC4)[C@H](C)N)c(F)cc3C(N)=O)cc12 [Example 2-464, 6-(((1R,2S)-2-amino-1-cyclopropylpropyl)amino)-5-fluoro-2-((3-((2-methoxyethyl)amino)-1-methyl-1H-indazol-5-yl)amino)nicotinamide]	10 to 50
Cc1ncc(Nc2nc(N[C@@H](CN)Cn3cccn3)c(F)cc2C(N)=O)cc1F [Example 2-469, (S)-6-((1-amino-3-(1H-pyrazol-1-yl)propan-2-yl)amino)-5-fluoro-2-((5-fluoro-6-methylpyridin-3-yl)amino)nicotinamide]	10 to 50
CC[C@H](N)[C@H](Nc1nc(Nc2cccnc2)c(C(N)=O)cc1F)C1CC1 [Example 2-485, 6-(((1R,2S)-2-amino-1-cyclopropylbutyl)amino)-5-fluoro-2-(pyridin-3-ylamino)nicotinamide]	10 to 50
CC[C@H](N)[C@H](Nc1nc(Nc2cncc(F)c2)c(C(N)=O)cc1F)C1CC1 [Example 2-486, 6-(((1R,2S)-2-amino-1-cyclopropylbutyl)amino)-5-fluoro-2-((5-fluoropyridin-3-yl)amino)nicotinamide]	10 to 50

SMILES	IC50 [nM]
CNc1n[nH]c2ccc(Nc3nc(N[C@@H]4CCCC[C@@H]4N)c(F)cc3C(N)=O)cc12 [Example 2-488, 6-(((1R,2S)-2-aminocyclohexyl)amino)-5-fluoro-2-((3-(methylamino)-1H-indazol-5-yl)amino)nicotinamide]	< 10
CC[C@@H](Nc1nc(Nc2ccc3[nH]nc(NC)c3c2)c(C(N)=O)cc1F)[C@H](C)N [Example 2-489, 6-(((2S,3R)-2-aminopentan-3-yl)amino)-5-fluoro-2-((3-(methylamino)-1H-indazol-5-yl)amino)nicotinamide]	10 to 50
CNc1n[nH]c2ccc(Nc3nc(N[C@H](C4CC4)[C@H](C)N)c(F)cc3C(N)=O)cc12 [Example 2-490, 6-(((1R,2S)-2-amino-1-cyclopropylpropyl)amino)-5-fluoro-2-((3-(methylamino)-1H-indazol-5-yl)amino)nicotinamide]	10 to 50
CC[C@H](N)[C@@H](C)Nc1nc(Nc2ccc3[nH]nc(NC)c3c2)c(C(N)=O)cc1F [Example 2-491, 6-(((2R,3S)-3-aminopentan-2-yl)amino)-5-fluoro-2-((3-(methylamino)-1H-indazol-5-yl)amino)nicotinamide]	10 to 50
CN(C)c1n[nH]c2ccc(Nc3nc(N[C@@H]4CCCC[C@@H]4N)c(F)cc3C(N)=O)cc12 [Example 2-492, 6-(((1R,2S)-2-aminocyclohexyl)amino)-2-((3-(dimethylamino)-1H-indazol-5-yl)amino)-5-fluoronicotinamide]	< 10
CC[C@@H](Nc1nc(Nc2ccc3[nH]nc(N(C)C)c3c2)c(C(N)=O)cc1F)[C@H](C)N [Example 2-493, 6-(((2S,3R)-2-aminopentan-3-yl)amino)-2-((3-(dimethylamino)-1H-indazol-5-yl)amino)-5-fluoronicotinamide]	< 10
C[C@H](N)[C@H](Nc1nc(Nc2ccc3[nH]nc(N(C)C)c3c2)c(C(N)=O)cc1F)C1CC1 [Example 2-494, 6-(((1R,2S)-2-amino-1-cyclopropylpropyl)amino)-2-((3-(dimethylamino)-1H-indazol-5-yl)amino)-5-fluoronicotinamide]	< 10
CC[C@H](N)[C@@H](C)Nc1nc(Nc2ccc3[nH]nc(N(C)C)c3c2)c(C(N)=O)cc1F [Example 2-495, 6-(((2R,3S)-3-aminopentan-2-yl)amino)-2-((3-(dimethylamino)-1H-indazol-5-yl)amino)-5-fluoronicotinamide]	< 10
CC[C@@H](Nc1nc(Nc2ccc3c(c2)c(NC)nn3C)c(C(N)=O)cc1F)[C@H](C)N [Example 2-497, 6-(((2S,3R)-2-aminopentan-3-yl)amino)-5-fluoro-2-((1-methyl-3-(methylamino)-1H-indazol-5-yl)amino)nicotinamide]	50 to 100
CNc1nn(C)c2ccc(Nc3nc(N[C@H](C4CC4)[C@H](C)N)c(F)cc3C(N)=O)cc12 [Example 2-498, 6-(((1R,2S)-2-amino-1-cyclopropylpropyl)amino)-5-fluoro-2-((1-methyl-3-(methylamino)-1H-indazol-5-yl)amino)nicotinamide]	< 10
CC[C@H](N)[C@@H](C)Nc1nc(Nc2ccc3c(c2)c(NC)nn3C)c(C(N)=O)cc1F [Example 2-499, 6-(((2R,3S)-3-aminopentan-2-yl)amino)-5-fluoro-2-((1-methyl-3-(methylamino)-1H-indazol-5-yl)amino)nicotinamide]	10 to 50
COCCn1nc(N(C)C)c2cc(Nc3nc(N[C@@H]4CCCC[C@@H]4N)c(F)cc3C(N)=O)ccc21 [Example 2-500, 6-(((1R,2S)-2-aminocyclohexyl)amino)-2-((3-(dimethylamino)-1-(2-methoxyethyl)-1H-indazol-5-yl)amino)-5-fluoronicotinamide]	10 to 50
COCCn1nc(N(C)C)c2cc(Nc3nc(N[C@@H]4CCOC[C@@H]4N)c(F)cc3C(N)=O)ccc21 [Example 2-501, 6-(((3R,4R)-3-aminotetrahydro-2H-pyran-4-yl)amino)-2-((3-(dimethylamino)-1-(2-methoxyethyl)-1H-indazol-5-yl)amino)-5-fluoronicotinamide]	10 to 50
CC[C@@H](Nc1nc(Nc2ccc3c(c2)c(N(C)C)nn3CCOC)c(C(N)=O)cc1F)[C@H](C)N [Example 2-502, 6-(((2S,3R)-2-aminopentan-3-yl)amino)-2-((3-(dimethylamino)-1-(2-methoxyethyl)-1H-indazol-5-yl)amino)-5-fluoronicotinamide]	10 to 50
CCC[C@@H](Nc1nc(Nc2ccc3c(c2)c(N(C)C)nn3CCOC)c(C(N)=O)cc1F)[C@H](C)N [Example 2-503, 6-(((2S,3R)-2-aminohexan-3-yl)amino)-2-((3-(dimethylamino)-1-(2-methoxyethyl)-1H-indazol-5-yl)amino)-5-fluoronicotinamide]	10 to 50
